According to patent publication US9981972B2, “N-hydroxy bicyclic hydantoin carbamates as tools for identification of serine hydrolase targets” (ABIDE THERAPEUTICS, INC., priority 2014, dated 2018):
“Also recorded” adds a separate entry of the source. Like-named read-outs stand apart in the source and are kept apart here.

What was measured:
[1] = biological target: T1, PPT1 (Mus musculus, UniProt O88531); assay: Inhibition by gel-based competitive ABPP in vivo (Compound 39 probe)
T1 construct: from tissue; host or cells: central and peripheral tissues (e.g. brain, testis) of C57BL6 mice
T1 sequence (O88531 28-306): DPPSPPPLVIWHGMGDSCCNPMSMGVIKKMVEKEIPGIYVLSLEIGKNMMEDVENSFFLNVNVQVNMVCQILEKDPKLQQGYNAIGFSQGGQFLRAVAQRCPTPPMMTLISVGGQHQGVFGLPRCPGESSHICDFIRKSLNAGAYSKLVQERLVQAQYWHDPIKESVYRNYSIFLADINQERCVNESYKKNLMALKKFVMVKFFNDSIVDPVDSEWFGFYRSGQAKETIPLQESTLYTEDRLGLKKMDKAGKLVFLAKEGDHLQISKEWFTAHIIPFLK
Experimental: Compound 26, Compound 34, and Compound 1 were administered across a dose range of 1-40 mg/kg to C57BL6 mice by intraperitoneal injection, and, after 4 hours, animals were sacrificed and tissues harvested for analysis by gel-based ABPP using the FP-Rh probe and the Compound 39 probe.

[2] = biological target: T2, PPT1 (Homo sapiens, UniProt P50897); assay: In situ inhibition of hPPT1 in transfected HEK293T cells, competitive ABPP with Compound 39 probe; assay type: cell-based; design: expressed in transfected cells; host or cells: HEK293T
T2 sequence (P50897 28-306): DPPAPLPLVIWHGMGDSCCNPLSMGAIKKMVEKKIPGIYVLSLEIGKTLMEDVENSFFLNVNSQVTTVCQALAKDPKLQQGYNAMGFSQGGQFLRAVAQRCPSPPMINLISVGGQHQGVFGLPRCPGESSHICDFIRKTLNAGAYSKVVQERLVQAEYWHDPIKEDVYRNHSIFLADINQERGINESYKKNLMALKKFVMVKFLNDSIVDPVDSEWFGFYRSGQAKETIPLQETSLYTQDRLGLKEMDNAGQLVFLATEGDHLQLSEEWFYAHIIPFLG
Experimental: HEK293T cells were seeded at 2×10^5 per well on 6 well plates and grown for 48 h. They were then transfected with mABHD3 (pCMV-Sport6), hABHD4 (pcDNA3.1/myc-his), hPPT1 (pCMV6-XL5), or hPPT1 S115A (pCMV6-XL5), by incubating 0.5 μg of DNA with 3 μL of PEI MAX (1 mg/mL, Polysciences, Inc) in serum-free DMEM for 30 min, then adding them to cells. After 48 h cells were either treated with compound in situ, as described above, or harvested for in vitro studies. The […] PPT1 mutation was introduced using QuikChange II Site Directed Mutagenesis Kit (Agilent) with the following primers: […]
(§1) In situ inhibitor treatments of human cell lines were performed as described previously (Hsu et al., J Med Chem 56, 8270-8279, 2012). Briefly, PC3 or transfected HEK293T cells were grown to confluency in serum-containing media (RPMI or DMEM, respectively). The culture media was then removed and replaced with fresh media containing DMSO or inhibitor at the desired concentration and incubated for 4 hours in a tissue culture incubator (37° C., 5% CO2). Cells were then washed with PBS, harvested, washed with PBS once more, and lysed with a probe sonicator.
This possibility was explored by treating HEK293T cells transfected with human PPT1 (hPPT1) with Compound 37 (5 μM, 4 h pre-treatment) or DMSO followed by cell lysis and treatment with Compound 39 (5 μM, 1 h). A strong, but diffuse Compound 37-sensitive, Compound 39-labeled protein band was detected by gel-based ABPP in hPPT1-transfected, but not mock-transfected cell lysates (see FIG. 14), and this diffuse signal was compressed to a tight, faster-migrating band matching the predicted molecular weight of PPT1 following treatment with the glycosidase PNGaseF (see FIG. 14). Western blotting with an anti-PPT1 antibody confirmed a similar migration pattern for hPPT1 protein in transfected cell lysates (see FIG. 14, bottom panel).
A structurally diverse panel of N-hydroxy bicyclic hydantoin carbamates were assayed at 2 or 0.2 μM for in situ inhibition of hPPT1 in transfected HEK293T cells.

[3] = biological target: T3, ABHD4 (Homo sapiens, UniProt Q8TB40); assay: ABPP-SILAC, PC3 cells treated in situ; assay type: cell-based; design: endogenous in cells; host or cells: PC3; conditions: 4 h in situ; for inhibition of ABHD4 in PC3 cells: FP-biotin
T3 sequence (Q8TB40 1-342): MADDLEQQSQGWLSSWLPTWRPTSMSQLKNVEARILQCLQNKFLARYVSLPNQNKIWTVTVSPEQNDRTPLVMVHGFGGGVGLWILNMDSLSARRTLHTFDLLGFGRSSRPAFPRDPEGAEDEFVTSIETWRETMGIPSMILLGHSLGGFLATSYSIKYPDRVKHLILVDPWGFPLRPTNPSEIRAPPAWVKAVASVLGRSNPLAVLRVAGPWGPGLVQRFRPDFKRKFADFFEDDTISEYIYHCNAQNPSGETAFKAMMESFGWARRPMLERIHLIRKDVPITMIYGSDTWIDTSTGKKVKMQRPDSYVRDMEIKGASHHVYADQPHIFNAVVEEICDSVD
Experimental: as §1
(§2) The activity and selectivity of dual ABHD3/4 and ABHD4-preferring inhibitors in PC3 cells by ABPP-SILAC was assessed. Isotopically heavy and light PC3 cells were treated in situ with inhibitor (Compound 37 (1 μM) or Compound 38 (0.5 μM)) or DMSO for 4 h and then lysed and processed for ABPP-SILAC analysis.
To evaluate the broader selectivity of Compound 26 and Compound 34 across the SH class, heavy and light isotopically-labeled PC3 cells were treated with inhibitor [Compound 34 (1 μM); or Compound 26 (1 or 0.1 μM); 4 h) and DMSO, respectively, followed by ABPP-SILAC analysis with either the FP-biotin probe or the Compound 39 probe. […] Conversely, Compound 34 inhibited >90% of ABHD4 activity, as measured with either the FP-biotin probe or the Compound 39 probe, and cross-reacted with four additional targets—ABHD6, PAFAH2, PLA2G7, and PLA2G15.

[4] = biological target: T3, ABHD4; assay: Gel-based competitive ABPP, recombinant enzyme in transfected HEK293T cell lysates; assay type: biochemical; design: myc-his; expressed in transfected cells; host or cells: HEK293T, transient transfection, pcDNA3.1/myc-his; lysate used in vitro; conditions: recombinant
Method in brief: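 Human ABHD4 was expressed by transient transfection in HEK293T cells, and lysates were combined with those expressing ABHD3. Inhibition was monitored by gel-based competitive activity-based protein profiling, with compound applied either in situ to cells or in vitro to lysates.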

[5] = biological target: T4, ABHD3 (Homo sapiens, UniProt Q8WU67); assay: ABPP-SILAC, PC3 cells treated in situ; assay type: cell-based; conditions: 4 h in situ, FP-biotin
T4 construct: endogenous in cells; host or cells: PC3
T4 sequence (Q8WU67 whole entry): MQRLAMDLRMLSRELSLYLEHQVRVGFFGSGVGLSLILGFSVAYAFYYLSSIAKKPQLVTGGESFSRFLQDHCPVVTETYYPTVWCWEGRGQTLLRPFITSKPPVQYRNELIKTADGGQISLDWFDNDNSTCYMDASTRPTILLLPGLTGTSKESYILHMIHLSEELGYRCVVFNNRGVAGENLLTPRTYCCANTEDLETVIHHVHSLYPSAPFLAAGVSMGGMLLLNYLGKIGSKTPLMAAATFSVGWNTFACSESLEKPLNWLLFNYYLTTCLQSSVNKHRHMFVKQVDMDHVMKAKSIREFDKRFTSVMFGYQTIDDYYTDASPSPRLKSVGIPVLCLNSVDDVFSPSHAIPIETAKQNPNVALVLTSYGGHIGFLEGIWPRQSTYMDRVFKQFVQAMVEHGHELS
Experimental: as §1, §2

[6] = hPPT1-transfected HEK293T cells, in situ, read-out: hPPT1 (in situ), IC50
[7] = transfected HEK293T lysates, read-out: hABHD4 in vitro potency (IC50)

`O=C(ON1C(=O)C2CN(C(=O)N3CCOCC3)CCN2C1=O)N1CCC(CCc2ccc(Cl)cc2)CC1` (stereo not shown) [Compound 1, 7-(morpholine-4-carbonyl)-1,3-dioxohexahydroimidazo[1,5-a]pyrazin-2(3H)-yl 4-(4-chloro-phenethyl)piperidine-1-carboxylate] was tested, and the “mPPT1 (in vivo), % @ 10 mg/kg (testis)” value ([1]; 10 mg/kg, testis, mouse) was 100% @ 10 mg/kg, the “dose inhibiting PPT1 in vivo” value ([1]; i.p., 4 h, Compound 39 probe) was at least 10 mg/kg and the IC50 [2, 6] was 500 nM.
In the case of `COc1ccc(N2CCN(C(=O)ON3C(=O)C4CN(CC5CCN(Cc6ccccc6)CC5)CCN4C3=O)CC2)cc1` (stereo not shown) [Compound 26, 7-((1-benzylpiperidin-4-yl)methyl)-1,3-dioxohexahydroimidazo[1,5-a]pyrazin-2(3H)-yl 4-(4-methoxyphenyl)piperazine-1-carboxylate], the “mPPT1 (in vivo), % @ 5 mg/kg (testis)” value ([1]; 5 mg/kg, testis, mouse) is reported as 100% @ 5 mg/kg, the “blockade of PPT1 in vivo” value ([1]; 1-5 mg/kg i.p., 4 h, central and peripheral tissues) is reported as “near-complete blockade” and the “in situ inhibition of hPPT1 at 200 nM” value ([2]; 200 nM, transfected HEK293T cells) is reported as “complete inhibition”. For the same compound, the IC50 ([2]; gel-based competitive ABPP, read-out: in situ IC50 for recombinant PPT1) was 100 nM.
For `O=C(ON1C(=O)C2CN(Cc3ccc(Oc4ccccc4)cc3)CCN2C1=O)N1CCOCC1` (stereo not shown) [Compound 34, 1,3-dioxo-7-(4-phenoxybenzyl)hexahydroimidazo[1,5-a]pyrazin-2(3H)-yl morpholine-4-carboxylate], the inhibition at 1 µM ([3]; PC-3, 1 μM, FP-biotin or Compound 39 probe) was over 90%, the IC50 [2, 6] was 3900 nM and the IC50 [4, 7] was about 1000 nM.
In the case of `COc1ccc(N2CCN(C(=O)ON3C(=O)C4CN(Cc5ccc(Oc6ccccc6)cc5)CCN4C3=O)CC2)cc1` (stereo not shown) [Compound 37, 1,3-dioxo-7-(4-phenoxybenzyl)hexahydroimidazo[1,5-a]pyrazin-2(3H)-yl 4-(4-methoxyphenyl)piperazine-1-carboxylate], the inhibition at 1 µM ([5]; PC-3, 1 μM) is reported as about 80%, the “inhibition of ABHD4 in PC3 cells” value ([3]; 1 μM) is reported as “completely inhibited” and the “hPPT1 (in situ), % @ 2 μM” value ([2]; 2 μM, hPPT1-transfected HEK293T cells, in situ) is reported as 100% @ 2 μM. The “reaction with hPPT1 / blockade of Compound 39 labeling” value ([2]; 5 μM, 4 h pre-treatment, hPPT1-transfected HEK293T cells) was “blocked; also recorded: reacted with PPT1”, the “preference ABHD4 over ABHD3” value ([4]; combined HEK293T lysates, gel-based ABPP) was “preferentially inhibited ABHD4 over ABHD3” and the IC50 [4, 7] was 100 nM.
With `O=C(ON1C(=O)C2CN(Cc3ccc(Oc4ccccc4)cc3)CCN2C1=O)N1CCC(c2ccccc2)CC1` (stereo not shown) [Compound 38, 1,3-dioxo-7-(4-phenoxybenzyl)hexahydroimidazo[1,5-a]pyrazin-2(3H)-yl 4-phenylpiperidine-1-carboxylate] the “inhibition of ABHD3 in PC3 cells” value ([5]; 0.5 μM) was “inhibit both ABHD3 and ABHD4”, the “inhibition of ABHD4 in PC3 cells” value ([3]; 0.5 μM) was “inhibit both ABHD3 and ABHD4” and the IC50 ([4]; combined HEK293T lysates, gel-based ABPP, read-out: ABHD4 IC50) was 30 nM.
